Source: ChEMBL document CHEMBL1201862, “PubChem BioAssay data set” (2004)
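Five compound concentrations were applied to cells in 96-well plates for 48 hours; endpoints were derived by simple linear interpolation of the resulting dose-response curve. Abbreviation: GI50, concentration required for 50% inhibition of growth.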 Activity calls are given as the source filed them. No stated cut-off is given here; in the data, active = GI50 up to about 1.1 µM and inactive = higher.

How the values were obtained:
Test in all cases: growth of human tumour cells (NCI), 48 h
[1] = system: 786-0
[2] = system: A498
[3] = system: A549
[4] = system: ACHN
[5] = system: BT-549
[6] = system: CAKI-1
[7] = system: CCRF-CEM
[8] = system: DU-145
[9] = system: EKVX
[10] = system: HCC 2998
[11] = system: HCT-116
[12] = system: HCT-15
[13] = system: HOP-62
[14] = system: HOP-92
[15] = system: HT-29
[16] = system: Hs-578T
[17] = system: IGROV-1
[18] = system: K562
[19] = system: KM12
[20] = system: LOX IMVI
[21] = system: M14
[22] = system: MDA-MB-231
[23] = system: MDA-MB-435
[24] = system: MDA-N
[25] = system: MOLT-4
[26] = system: Malme-3M
[27] = system: NCI-H226
[28] = system: NCI-H23
[29] = system: NCI-H460
[30] = system: NCI-H522
[31] = system: NCI/ADR-RES
[32] = system: OVCAR-3
[33] = system: OVCAR-4
[34] = system: OVCAR-5
[35] = system: OVCAR-8
[36] = system: PC-3
[37] = system: RXF 393
[38] = system: SF-268
[39] = system: SF-295
[40] = system: SK-MEL-28
[41] = system: SK-MEL-2
[42] = system: SK-MEL-5
[43] = system: SN12C
[44] = system: SNB-19
[45] = system: SNB-75
[46] = system: SR
[47] = system: SW-620
[48] = system: T47D
[49] = system: TK-10
[50] = system: U-251
[51] = system: UACC-257
[52] = system: UACC-62
[53] = system: UO-31
[54] = system: COLO 205
[55] = system: MCF7
[56] = system: RPMI-8226
[57] = system: SF-539
[58] = system: SK-OV-3

NC(CCc1ccccc1)(C(=O)O)c1ccccc1 (stereo not drawn)
GI50 [1]: > 100 µM (inactive) | GI50 [2]: > 100 µM (inactive) | GI50 [3]: > 100 µM (inactive) | GI50 [4]: > 100 µM (inactive) | GI50 [5]: > 100 µM (inactive) | GI50 [6]: > 100 µM (inactive) | GI50 [7]: > 100 µM (inactive) | GI50 [8]: > 100 µM (inactive) | GI50 [9]: > 100 µM (inactive) | GI50 [10]: > 100 µM (inactive) | GI50 [11]: > 100 µM (inactive) | GI50 [12]: > 100 µM | GI50 [13]: > 100 µM (inactive) | GI50 [14]: > 100 µM (inactive) | GI50 [15]: > 100 µM (inactive) | GI50 [16]: > 100 µM (inactive) | GI50 [17]: > 100 µM (inactive) | GI50 [18]: > 100 µM (inactive) | GI50 [19]: > 100 µM (inactive) | GI50 [20]: > 100 µM (inactive) | GI50 [21]: > 100 µM (inactive) | GI50 [22]: > 100 µM (inactive) | GI50 [23]: > 100 µM (inactive) | GI50 [24]: > 100 µM (inactive) | GI50 [25]: > 100 µM (inactive) | GI50 [26]: > 100 µM (inactive) | GI50 [27]: > 100 µM (inactive) | GI50 [28]: > 100 µM (inactive) | GI50 [29]: > 100 µM (inactive) | GI50 [30]: > 100 µM (inactive) | GI50 [31]: > 100 µM (inactive) | GI50 [32]: > 100 µM (inactive) | GI50 [33]: > 100 µM (inactive) | GI50 [34]: > 100 µM (inactive) | GI50 [35]: > 100 µM (inactive) | GI50 [36]: > 100 µM (inactive) | GI50 [37]: > 100 µM (inactive) | GI50 [38]: > 100 µM (inactive) | GI50 [39]: > 100 µM (inactive) | GI50 [40]: > 100 µM (inactive) | GI50 [41]: > 100 µM (inactive) | GI50 [42]: > 100 µM (inactive) | GI50 [43]: > 100 µM (inactive) | GI50 [44]: > 100 µM (inactive) | GI50 [45]: > 100 µM (inactive) | GI50 [46]: > 100 µM (inactive) | GI50 [47]: > 100 µM (inactive) | GI50 [48]: > 100 µM (inactive) | GI50 [49]: > 100 µM (inactive) | GI50 [50]: > 100 µM (inactive) | GI50 [51]: > 100 µM (inactive) | GI50 [52]: > 100 µM (inactive) | GI50 [53]: > 100 µM (inactive)

C=CCCC1CCCNC1=S (stereo not drawn)
GI50 [1]: > 100 µM (inactive) | GI50 [2]: > 100 µM (inactive) | GI50 [3]: > 100 µM (inactive) | GI50 [4]: > 100 µM (inactive) | GI50 [5]: > 100 µM (inactive) | GI50 [6]: > 100 µM (inactive) | GI50 [54]: > 100 µM (inactive) | GI50 [8]: > 100 µM (inactive) | GI50 [9]: > 100 µM (inactive) | GI50 [10]: > 100 µM (inactive) | GI50 [11]: > 100 µM (inactive) | GI50 [12]: > 100 µM | GI50 [13]: > 100 µM (inactive) | GI50 [14]: > 100 µM (inactive) | GI50 [15]: > 100 µM (inactive) | GI50 [16]: > 100 µM (inactive) | GI50 [17]: > 100 µM (inactive) | GI50 [18]: > 100 µM (inactive) | GI50 [21]: > 100 µM (inactive) | GI50 [55]: > 100 µM (inactive) | GI50 [22]: > 100 µM (inactive) | GI50 [23]: > 100 µM (inactive) | GI50 [24]: > 100 µM (inactive) | GI50 [27]: > 100 µM (inactive) | GI50 [28]: > 100 µM (inactive) | GI50 [29]: > 100 µM (inactive) | GI50 [30]: > 100 µM (inactive) | GI50 [33]: > 100 µM (inactive) | GI50 [34]: > 100 µM (inactive) | GI50 [35]: > 100 µM (inactive) | GI50 [36]: > 100 µM (inactive) | GI50 [56]: > 100 µM (inactive) | GI50 [37]: > 100 µM (inactive) | GI50 [38]: > 100 µM (inactive) | GI50 [39]: > 100 µM (inactive) | GI50 [57]: > 100 µM (inactive) | GI50 [40]: > 100 µM (inactive) | GI50 [41]: > 100 µM (inactive) | GI50 [42]: > 100 µM (inactive) | GI50 [58]: > 100 µM (inactive) | GI50 [43]: > 100 µM (inactive) | GI50 [44]: > 100 µM (inactive) | GI50 [45]: > 100 µM (inactive) | GI50 [47]: > 100 µM (inactive) | GI50 [48]: > 100 µM (inactive) | GI50 [49]: > 100 µM (inactive) | GI50 [50]: > 100 µM (inactive) | GI50 [51]: > 100 µM (inactive) | GI50 [52]: > 100 µM (inactive) | GI50 [53]: > 100 µM (inactive)
